Ki and IC50 data for 15 compounds are collected here from ChEMBL document CHEMBL1149934, “(N-acyl-N-alkyl)glycyl borolysine analogs: A new class of potent thrombin inhibitors” (Bioorg Med Chem Lett, 1996).

The target of assay [1] is T1, Prothrombin (Homo sapiens, UniProt P00734). The assay can be described thus: In vitro for inhibition of thrombin.
The next assay addresses Plasminogen (Homo sapiens, UniProt P00747). The assay is described as follows: In vitro for inhibition of plasmin.
Assay [2] has as its target Tissue-type plasminogen activator (Homo sapiens, UniProt P00750). The assay can be described thus: Compound was tested in vitro for inhibition of tissue plasminogen activator.
Another assay addresses Serine protease 1 (Homo sapiens, UniProt P07477). The assay can be described thus: Compound was tested in vitro for inhibition of trypsin.
The target of assay [3] is T1, Prothrombin. The assay is described as follows: Compound was tested in vitro for inhibition of thrombin.

Chain of Serine protease 1 (P07477 whole entry): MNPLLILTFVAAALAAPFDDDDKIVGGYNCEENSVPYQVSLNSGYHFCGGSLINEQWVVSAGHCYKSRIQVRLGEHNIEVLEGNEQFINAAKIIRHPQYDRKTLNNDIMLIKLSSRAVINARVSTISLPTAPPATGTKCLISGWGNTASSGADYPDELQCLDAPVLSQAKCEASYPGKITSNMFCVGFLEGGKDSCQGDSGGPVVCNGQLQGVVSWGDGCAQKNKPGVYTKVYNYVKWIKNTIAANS
Chain of Plasminogen (P00747 97-580 limits assumed): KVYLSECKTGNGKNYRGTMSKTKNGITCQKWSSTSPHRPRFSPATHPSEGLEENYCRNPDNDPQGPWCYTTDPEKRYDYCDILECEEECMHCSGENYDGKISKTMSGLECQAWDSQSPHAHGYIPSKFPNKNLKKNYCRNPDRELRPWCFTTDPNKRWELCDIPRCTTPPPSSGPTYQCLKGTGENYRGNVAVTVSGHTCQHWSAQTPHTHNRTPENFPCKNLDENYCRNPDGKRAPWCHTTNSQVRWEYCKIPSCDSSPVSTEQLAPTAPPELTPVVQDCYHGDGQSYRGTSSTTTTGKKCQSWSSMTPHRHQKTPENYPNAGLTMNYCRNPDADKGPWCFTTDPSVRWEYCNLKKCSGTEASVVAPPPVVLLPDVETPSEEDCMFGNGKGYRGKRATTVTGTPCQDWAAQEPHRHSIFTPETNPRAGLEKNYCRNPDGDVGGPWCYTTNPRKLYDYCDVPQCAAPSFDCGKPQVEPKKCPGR
Chain of Plasminogen (P00747 581-810 limits assumed): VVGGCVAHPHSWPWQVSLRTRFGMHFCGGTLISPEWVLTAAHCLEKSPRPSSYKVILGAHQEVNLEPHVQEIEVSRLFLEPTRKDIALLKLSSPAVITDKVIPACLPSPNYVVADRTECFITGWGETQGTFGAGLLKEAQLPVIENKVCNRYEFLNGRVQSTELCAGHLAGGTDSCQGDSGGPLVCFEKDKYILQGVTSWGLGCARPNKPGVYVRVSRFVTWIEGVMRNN
Chain of Tissue-type plasminogen activator (P00750 whole entry): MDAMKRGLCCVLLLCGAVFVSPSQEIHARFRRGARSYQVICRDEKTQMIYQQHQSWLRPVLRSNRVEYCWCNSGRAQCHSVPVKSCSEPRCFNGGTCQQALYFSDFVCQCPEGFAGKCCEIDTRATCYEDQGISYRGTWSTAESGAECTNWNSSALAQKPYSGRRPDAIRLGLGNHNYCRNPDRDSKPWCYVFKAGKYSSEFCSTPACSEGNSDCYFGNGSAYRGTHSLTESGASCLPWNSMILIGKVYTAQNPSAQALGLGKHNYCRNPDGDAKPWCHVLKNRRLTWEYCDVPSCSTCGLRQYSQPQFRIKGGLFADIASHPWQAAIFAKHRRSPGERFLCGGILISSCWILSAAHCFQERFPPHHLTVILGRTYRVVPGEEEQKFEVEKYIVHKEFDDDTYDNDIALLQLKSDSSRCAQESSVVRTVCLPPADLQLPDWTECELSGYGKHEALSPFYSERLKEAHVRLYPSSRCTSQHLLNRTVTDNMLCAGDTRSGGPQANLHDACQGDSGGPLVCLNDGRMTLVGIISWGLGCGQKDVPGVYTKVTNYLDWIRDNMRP

As to `CN(CC(=O)N[C@@H](CCCCN)B(O)O)C(=O)Cc1ccccc1`, the inhibition constant (Ki) (in general, a dissociation constant, usually derived from enzyme kinetics or from competition with a known ligand) at Prothrombin [1] stood at 16 nM.

As for `NCCCC[C@H](NC(=O)CN(Cc1ccccc1)C(=O)CCc1ccccc1)B(O)O`, at Prothrombin [1], affinity was put at a Ki of 4.68 nM.

For the compound `NCCCC[C@H](NC(=O)CN(C(=O)CCc1ccccc1)c1ccccc1)B(O)O`, the Ki on Plasminogen amounted to 230 nM; at Prothrombin [1], 1.4 nM; in assay [2], 280 nM.

In the case of `CC(=O)N[C@H](Cc1ccccc1)C(=O)N1CCC[C@H]1C(=O)N[C@@H](CCCN=C(N)N)B(O)O`, the inhibition constant Ki on Plasminogen amounted to 5.1 nM; on Serine protease 1 it was 0.045 nM; in assay [2] it was 5.7 nM.

On to `NCCCC[C@H](NC(=O)CN(C(=O)CCc1ccccc1)C1CC1)B(O)O`, for which the Ki was determined as 160 nM at Plasminogen, 1.1 nM on Serine protease 1, 0.69 nM at Prothrombin [1] and 750 nM in assay [2].

Compound `CN(CC(=O)N[C@@H](CCCCN)B(O)O)C(=O)c1ccccc1` registered a Ki on Prothrombin [1] of 123 nM.

Take `CN(CC(=O)N[C@@H](CCCCN)B(O)O)C(=O)CCc1ccccc1`: the inhibition constant Ki came to 250 nM at Plasminogen, 2.8 nM at Serine protease 1, 1.71 nM on Prothrombin [1] and 3800 nM in assay [2].

Turning to `NCCCC[C@H](NC(=O)CNC(=O)CCc1ccccc1)B(O)O`, the half-maximal inhibitory concentration (IC50) (usually the concentration needed to halve the response being measured) at Prothrombin [3] came to 90 µM.

`CN(CC(=O)N[C@@H](CCCCN)B(O)O)C(=O)CCCc1ccccc1`: the Ki at Prothrombin [1] came out at 5.4 nM.

For the compound `CC(C)N(CC(=O)N[C@@H](CCCCN)B(O)O)C(=O)CCc1ccccc1`, the Ki was found to be 140 nM at Plasminogen, 3.8 nM on Serine protease 1, 1.6 nM on Prothrombin [1] and 3370 nM in assay [2].

On to `NCCCC[C@H](NC(=O)CN(C(=O)CCc1ccccc1)C1CCCCC1)B(O)O`, for which the Ki on Plasminogen amounted to 250 nM; at Serine protease 1, 8.4 nM; at Prothrombin [1], 4.9 nM; in assay [2] it was 1100 nM.

For the compound `CN=C(N)NCCC[C@H](NC(=O)CN(C)C(=O)CCc1ccccc1)B(O)O`, the inhibition constant Ki stood at 14000 nM on Plasminogen, 18 nM at Serine protease 1 and 2.1 nM on Prothrombin [1].

With `CN(CC(=O)N[C@@H](CCCN=C(N)N)B(O)O)C(=O)CCc1ccccc1`, the inhibition constant (Ki) at Plasminogen was 460 nM; at Serine protease 1 it was 0.61 nM; at Prothrombin [1] it was 0.16 nM; in assay [2] it was 51 nM.

On to `CN(CC(=O)N[C@@H](CCC/N=C\N)B(O)O)C(=O)CCc1ccccc1`, for which the Ki on Plasminogen was over 10000 nM; at Serine protease 1 it was 21 nM; at Prothrombin [1] it was 9.1 nM; in assay [2], 7000 nM.

Take `NCCCC[C@H](NC(=O)CN(CCc1ccccc1)C(=O)CCc1ccccc1)B(O)O`: the inhibition constant Ki came out at 170 nM at Plasminogen, 2.5 nM on Serine protease 1, 0.42 nM on Prothrombin [1] and 680 nM in assay [2].
